≈ marks a conversion by molar mass, not a printed value. Where “and” joins values, the source holds several entries; their conditions need not be identical. Equal values may be shown once. Read-outs that look alike come from different tables or passages of the source.
How the values were obtained:
[1] = biological target: T1, rat lens aldose reductase (rAR) (Rattus norvegicus, UniProt P07943); test: Rat lens aldose reductase (rAR) inhibition, DL-glyceraldehyde substrate, NADPH decrease at 340 nm; assay type: biochemical; settings: for IC50: Table 2 experiment, read-out: IC50 (rAR), isolated constituents (converted)
T1 construct: The rat lens homogenate was prepared according to the method of Hayman and Kinoshita with some modifications; from tissue; host or cells: lenses of Sprague-Dawley rats (homogenate supernatant)
Method: The rat lens homogenate was prepared according to the method of Hayman and Kinoshita with some modifications. Non-cataractous transparent lenses were pooled and homogenate was prepared in 0.1 M phosphate buffer saline (pH 6.2). After centrifugation at 10,000 rpm for 20 min in a refrigerated centrifuge, the supernatant, which was then collected and as the rAR, all procedures were carried out at 4 °C.
Each 1.0 mL cuvette contained equal units of the enzyme, 0.10 M sodium phosphate buffer (pH 6.2), 0.3 mM NADPH, with or without 10 mM of the substrate and an inhibitor [10, 36].

[2] = ABTS^+ radical assay (antioxidant)
Method: The method of Re et al., [39] was used with slight modifications. ABTS diammonium salt (2 mM) and potassium persulfate (3.5 mM) were mixed, diluted in distilled water and kept in the dark at room temperature for 24 h before use. After addition of ABTS^+ solution to 10 µL of antioxidant compounds were recorded at after 10 min reaction. […] Trolox was used as positive control.

[3] = tested on: rat erythrocyte; test: Galactitol accumulation in rat erythrocytes incubated with galactose; assay type: cell-based; settings: 30 mM galactose; for Rat Erythrocyte Galactitol Content: 5 µg/mL compound, control 86.70 ± 1.61; for decrease of galactitol accumulation in rat erythrocyte: 5 µg/mL
Method: Blood sample was collected in heparin containing polypropylene tube from 10-week-old male rats. For sugar and sugar alcohol analysis, erythrocytes from heparinized blood were separated from the plasma and buffy coat by centrifuging at 2000× g for 10 min. The cells were washed thrice with normal saline (0.9% NaCl) at 4 °C. In the final washing, the cells were centrifuged at 2000× g for 10 min to obtain a consistently packed cell preparation. The packed cells (1 mL) were then incubated in a Krebs-Ringer bicarbonate buffer (pH 7.4) containing 30 mM galactose in the presence or absence of samples at 37 °C in 5% CO2 for 3 h. The erythrocytes were washed with cold saline by centrifuging at 2000× g for 10 min, precipitated by adding 6% of cold perchloric acid (3 mL), and centrifuged again at 2000× g for 10 min. The supernatant was neutralized with 2.5 M K2CO3 at 4 °C and used for galactitol determination. HPLC analysis for sugar and sugar alcohol in blood was performed with this supernatant of red blood cell homogenate after being benzoylated.

[4] = biological target: T2, recombinant human aldose reductase (rhAR) (Homo sapiens, UniProt P15121); test: Kinetic analysis of aldose reductase inhibition (Lineweaver-Burk plots); assay type: biochemical
T2 construct: purchased Wako Pure Chemical Industries (Osaka, Japan)
Method: Reaction mixtures consisted of 0.1 M potassium phosphate, 0.16 mM NADPH, […] of recombinant human aldose reductase (rhAR) with varied concentrations of substrate DL-glyceraldehyde and AR inhibitor in a total volume of 200 µL. Concentrations were ranged from 0.1 to 1 mM for DL-glyceraldehyde, from 0.1 to 1 mM for active compound. Recombinant human aldose reductase activity was assayed spectrophotometrically by measuring the decrease in absorption of NADPH at 340 nm after substrate addition using a Bio Tek Power Wave XS spectrophotometer (Bio Tek Instruments, Winooski, VT, USA).

[5] = tested on: rat lenses; test: Galactitol accumulation in cultured isolated rat lenses (ex vivo); assay type: cell-based; settings: for Galactitol Content µg/lens Wet Weight (g): 5 µg/mL compound, control 250.47 ± 5.01; for inhibition at 5 µg/mL: Rattus norvegicus, 144 h, read-out: inhibition of galactitol accumulation in isolated rat lenses
Method: Lenses isolated from 10-week-old male rats were cultured for 6 days in TC-199 medium that contained 15% fetal bovine serum 100 units/mL penicillin and 0.1 mg/mL streptomycin under sterile conditions in an atmosphere of 5% CO2 and 95% air at 37 °C. Samples were dissolved in dimethyl sulfoxide. The lenses were divided into five groups and cultured in medium containing 5 mM glucose, 30 mM galactose and rosmarinic acid or caffeic acid ethylene ester. Each lens was placed in well containing 1.0 mL of medium. Galactitol was determined by HPLC after its derivatization by reaction with benzoic acid to a fluorescent compound [37].

[6] = Table 2, read-out: Inhibition (%) of rAR
[7] = Table 1, read-out: Aldose Reductase Inhibition (%)

Structure (SMILES) | inhibition at 10 µg/mL ([1]; Table 2) [%] | Inhibition (%) of ABTS^+ ([2]; Table 5, 16.67 µg/mL) [%] | inhibition at 0.5 µg/mL [1, 6] [%] | inhibition at 1 µg/mL [1, 6] [%] | inhibition at 5 µg/mL ([1]; Table 2) [%] | IC50 [1] | IC50 ([2]; Table 5) [µM] | IC50 (ABTS^+) ([2]; Table 5) [µg/mL] | Inhibition (%) of ABTS^+ ([2]; Table 5, 1.67 µg/mL) [%] | Inhibition (%) of ABTS^+ ([2]; Table 5, 3.33 µg/mL) [%] | Inhibition (%) of ABTS^+ ([2]; Table 5, 8.33 µg/mL) [%] | other results
N[C@@H](Cc1c[nH]c2ccccc12)C(=O)O [Compound 1, tryptophan] | 20 ± 2.01 | 37.51 ± 2.93 | – | – | – | – | – | – | – | – | – | –
O=c1cc(-c2ccc(O)c(O)c2)oc2c([C@@H]3O[C@H](CO)[C@@H](O)[C@H](O)[C@H]3O)c(O)cc(O)c12 [Compound 2, orientin] | – | – | 35.3 ± 0.36 | 64.57 ± 0.52 | 94 ± 0.98 | 1.65 µM | 12.5 ± 0.95 | 5.59 ± 0.42 (≈ 12.5 µM) | 17.56 ± 2.21 | 31.76 ± 3.19 | 72.55 ± 4.10 | Rat Erythrocyte Galactitol Content [3]: 72.72 ± 0.98 µM; decrease of galactitol accumulation in rat erythrocyte [3]: 16.1%; type of inhibition ([4]; Lineweaver-Burk plots, Km unchanged, Vmax decreased): noncompetitive inhibitors; Ki ([4]; from secondary Lineweaver-Burk plots, DL-glyceraldehyde 0.1-1 mM, read-out: inhibitory constant (Ki)): 3.23 µM; Galactitol Content µg/lens Wet Weight (g) ([5]; 30 mM galactose, 6 days): 227.89 ± 4.52 µg/lens Wet Weight (g); inhibition at 5 µg/mL [5]: 9.1%; effect on polyol accumulation in rat lenses ([5]; conclusion statement): prevented the accumulation of sorbitol in rat lenses
O=c1cc(-c2ccc(O)cc2)oc2c([C@@H]3O[C@H](CO)[C@@H](O)[C@H](O)[C@H]3O)c(O)cc(O)c12 [Compound 4, vitexin] | 48.5 ± 0.87 | 46.17 ± 2.65 | – | – | – | – | – | – | – | – | – | –
O=c1cc(-c2ccc(O)cc2)oc2cc(O)c([C@@H]3O[C@H](CO)[C@@H](O)[C@H](O)[C@H]3O)c(O)c12 [Compound 5, isovitexin] | 76.59 ± 0.74 | 44.40 ± 4.91 | – | 23.3 ± 0.25 | 60.3 ± 0.61 | 7.35 µM and 7.36 µM | – | – | – | – | – | –
O=c1cc(-c2ccc(O)c(O)c2)oc2cc(O[C@@H]3O[C@H](CO)[C@@H](O)[C@H](O)[C@H]3O)cc(O)c12 [Compound 6, luteolin-7-O-glucoside] | 76.2 ± 0.77 | – | – | 19.1 ± 0.21 | 61.88 ± 0.6 | 7.47 µM | 17.8 ± 1.51 | 8.00 ± 0.68 (≈ 17.8 µM) | 13.49 ± 1.09 | 22.66 ± 2.47 | 52.11 ± 3.98 | –
C[C@@H]1O[C@@H](OC[C@H]2O[C@@H](Oc3cc(O)c4c(=O)cc(-c5ccc(O)c(O)c5)oc4c3)[C@H](O)[C@@H](O)[C@@H]2O)[C@H](O)[C@H](O)[C@H]1O [Compound 7, luteolin-7-O-rutinoside] | – | 79.82 ± 0.67 | 29.9 ± 0.3 | 40.31 ± 0.4 | 72.7 ± 0.73 | 2.59 µM | 15.8 ± 0.8 | 9.38 ± 0.47 (≈ 15.8 µM) | – | 21.44 ± 1.46 | 49.55 ± 3.91 | –
O=C(/C=C/c1ccc(O)c(O)c1)O[C@H](Cc1ccc(O)c(O)c1)C(=O)O [Compound 8, rosmarinic acid] | – | – | 18.3 ± 0.19 | 62.79 ± 0.6 | 87.33 ± 0.87 | – | 19.2 ± 1.69 | 6.91 ± 0.61 (≈ 19.2 µM) | 16.20 ± 3.85 | 23.61 ± 2.27 | 60.25 ± 4.66 | –
COc1cc(C=CC(=O)OC2OC(CO)C(O)C(O)C2O)ccc1O [Compound 9, 1-O-feruloyl-D-glucoside] | 4.06 ± 0.4 | 59.10 ± 2.55 | – | – | – | – | 37.4 ± 0.64 | 13.31 ± 0.23 (≈ 37.4 µM) | – | 13.51 ± 1.62 | 35.36 ± 1.54 | –
O=C(C=Cc1ccc(O)c(O)c1)OC1OC(CO)C(O)C(O)C1O [Compound 10, 1-O-caffeoyl-D-glucoside] | 73.2 ± 0.99 | – | – | – | 55.6 ± 0.78 | 14.1 µM | 23.5 ± 1.43 | 8.04 ± 0.49 (≈ 23.5 µM) | 14.07 ± 0.39 | 29.84 ± 1.19 | 50.87 ± 1.30 | inhibition at 2.5 µg/mL [1, 6]: 24.7 ± 0.36%
O=c1c(O)c(-c2ccc(O)c(O)c2)oc2cc(O)cc(O)c12 [Quercetin, quercetin, reference compound] | – | – | 26.3 ± 0.59 | 48.6 ± 1.44 | 81.14 ± 0.81 | – | – | – | – | – | – | inhibition at 0.5 µg/mL [1, 7]: 31.62 ± 0.09%; inhibition at 1 µg/mL [1, 7]: 48.9 ± 0.51%; inhibition at 2.5 µg/mL [1, 7]: 69.6 ± 0.72%; Rat Erythrocyte Galactitol Content [3]: 45.17 ± 0.81 µM; decrease of galactitol accumulation in rat erythrocyte [3]: 47.9%; IC50 ([2]; Table 4): 3.2 ± 0.12 µM; IC50 (ABTS^+) ([2]; Table 4): 0.97 ± 0.04 µg/mL (≈ 3.21 µM); Inhibition (%) of ABTS^+ ([2]; Table 4, 0.33 µg/mL): 22.98 ± 3.55%; Inhibition (%) of ABTS^+ ([2]; Table 4, 0.83 µg/mL): 42.49 ± 3.39%; Inhibition (%) of ABTS^+ ([2]; Table 4, 1.67 µg/mL): 81.36 ± 1.75%; Galactitol Content µg/lens Wet Weight (g) ([5]; 30 mM galactose, 6 days): 241.07 ± 4.57 µg/lens Wet Weight (g); inhibition at 5 µg/mL ([5]; 5 µg/mL, 30 mM galactose, 6 days): 3.8%
Cc1c(C)c2c(c(C)c1O)CCC(C)(C(=O)O)O2 (centres unmarked) [Trolox, reference compound] | – | – | – | – | – | – | – | – | – | – | – | IC50 ([2]; Table 4): 11.49 ± 0.04 µM; IC50 (ABTS^+) ([2]; Table 4): 2.87 ± 0.01 µg/mL (≈ 11.5 µM); Inhibition (%) of ABTS^+ ([2]; Table 4, 1.67 µg/mL): 27.07 ± 1.15%; Inhibition (%) of ABTS^+ ([2]; Table 4, 3.33 µg/mL): 57.40 ± 2.03%; Inhibition (%) of ABTS^+ ([2]; Table 4, 8.33 µg/mL): 92.92 ± 0.06%

Source: paper PMC6271131, “Inhibitory Effects of Colocasia esculenta (L.) Schott Constituents on Aldose Reductase” (Molecules, 2014)
